Data from patent US7074829B2, “Antiestrogens, process for their production and their pharmaceutical use” (Schering AG, priority 1998, dated 2006).

Test system: uterus
Experiment: Uterus growth test in infant rats (antiestrogenic action)
Type: in vivo, rat
Conditions: inhibition compared to the estradiol benzoate (EB) control

SMILES | Antiuterotrophic Action at 0.3 mg s.c. [% Inhibition]
CC(=O)O[C@H]1CC[C@H]2C[C@@H](c3ccc(O)cc3)[C@@H](c3ccc(OCCCCC[S+]([O-])CCCC(F)(F)C(F)(F)F)cc3)C[C@@]21C (some centres unmarked) [Example 5] | 55
C[C@]12C[C@H](c3ccc(OCCCCC[S+]([O-])CCCC(F)(F)C(F)(F)F)cc3)[C@H](c3ccc(O)cc3)C[C@@H]1CC[C@@H]2O (stereo partly drawn) [Example 3, (1S,3S,4R,6S,9S)-9-Hydroxy-4-(4-hydroxyphenyl)-1-methyl-3-[4-(5-(4,4,5,5,5-pentafluoro-pentylsulfinyl)pentyloxy)phenyl]-bicyclo[4.3.0]nonane] | 37
